Assay results: ChEMBL document CHEMBL1201862, “PubChem BioAssay data set” (2004)
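Dose response: 5 concentrations. Exposure: 48 h. Format: 96-well plates. Endpoint: linear interpolation; highest concentration if not reached. GI50 marks 50% less growth.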 Calls of active or inactive are those of the source. Cut-off read from the data, not from the text of the source: active = GI50 up to about 1.1 µM and inactive = higher.

Legend:
Test in all cases: NCI tumour cell line growth inhibition, 48 h
EKVX = tested on: EKVX
SK-OV-3 = tested on: SK-OV-3
RPMI-8226 = tested on: RPMI-8226
HOP-62 = tested on: HOP-62
OVCAR-8 = tested on: OVCAR-8
TK-10 = tested on: TK-10
786-0 = tested on: 786-0
SF-539 = tested on: SF-539
HCC 2998 = tested on: HCC 2998
CAKI-1 = tested on: CAKI-1
KM12 = tested on: KM12
SK-MEL-5 = tested on: SK-MEL-5
U-251 = tested on: U-251
HL-60 = tested on: HL-60
SNB-19 = tested on: SNB-19
A549 = tested on: A549
SF-295 = tested on: SF-295
OVCAR-5 = tested on: OVCAR-5
IGROV-1 = tested on: IGROV-1
ACHN = tested on: ACHN

| Structure (SMILES) | GI50 (EKVX) | GI50 (SK-OV-3) | GI50 (RPMI-8226) | GI50 (HOP-62) | GI50 (OVCAR-8) | GI50 (TK-10) | GI50 (786-0) | GI50 (SF-539) | GI50 (HCC 2998) | GI50 (CAKI-1) | GI50 (KM12) | GI50 (SK-MEL-5) | GI50 (U-251) | GI50 (HL-60) | GI50 (SNB-19) | GI50 (A549) | GI50 (SF-295) | GI50 (OVCAR-5) | GI50 (IGROV-1) | GI50 (ACHN) |
| --- | --- | --- | --- | --- | --- | --- | --- | --- | --- | --- | --- | --- | --- | --- | --- | --- | --- | --- | --- | --- |
| Cn1c(=O)[nH]c2[nH]c3ccccc3c2c1=O | > 100 µM (inactive) | > 100 µM (inactive) | 92 µM (inactive) | > 100 µM (inactive) | > 100 µM (inactive) | > 100 µM (inactive) | > 100 µM (inactive) | > 100 µM (inactive) | > 100 µM (inactive) | > 100 µM (inactive) | > 100 µM (inactive) | > 100 µM (inactive) | > 100 µM (inactive) | > 100 µM (inactive) | > 100 µM (inactive) | > 100 µM (inactive) | > 100 µM (inactive) | > 100 µM (inactive) | > 100 µM (inactive) | > 100 µM (inactive) |
| CC1(C)C2C/C(=C\c3ccccc3)C(=O)C1C2 (stereo not given) | 86.9 µM (inactive) | > 100 µM (inactive) | 61.8 µM (inactive) | > 100 µM (inactive) | > 100 µM (inactive) | > 100 µM (inactive) | > 100 µM (inactive) | > 100 µM (inactive) | > 100 µM (inactive) | > 100 µM (inactive) | > 100 µM (inactive) | 45.5 µM (inactive) | > 100 µM (inactive) | 35.9 µM (inactive) | > 100 µM (inactive) | 93.5 µM (inactive) | > 100 µM (inactive) | > 100 µM (inactive) | > 100 µM (inactive) | > 100 µM (inactive) |
| CC(C)(C)c1ccc2c(c1)CNCCNCc1cc(C(C)(C)C)ccc1OCC1(CO2)COc2ccc(C(C)(C)C)cc2CNCCNCc2cc(C(C)(C)C)ccc2OC1 | 1.27 µM (inactive) | 1.84 µM (inactive) | 0.372 µM (active) | 1.66 µM (inactive) | 0.935 µM (active) | 1.85 µM (inactive) | 0.25 µM (active) | 0.933 µM (active) | 0.335 µM (active) | 1.41 µM (inactive) | 0.388 µM (active) | 1.23 µM (inactive) | 0.242 µM (active) | 0.179 µM (active) | 0.935 µM (active) | 0.433 µM (active) | 0.968 µM (active) | 1.72 µM (inactive) | 1.28 µM (inactive) | 1.6 µM (inactive) |
| Oc1c(N2CCCCC2)cc(-c2cc(N3CCCCC3)c(O)c3ccccc23)c2ccccc12 | > 100 µM (inactive) | > 100 µM (inactive) | 29.6 µM (inactive) | 32.1 µM (inactive) | 33 µM (inactive) | > 100 µM (inactive) | 22.3 µM (inactive) | 33.2 µM (inactive) | 33.5 µM (inactive) | > 100 µM (inactive) | 64.1 µM (inactive) | 17.5 µM (inactive) | 35.2 µM (inactive) | 27.7 µM (inactive) | 98.4 µM (inactive) | 39.3 µM (inactive) | 41.2 µM (inactive) | 72.4 µM (inactive) | 43.7 µM (inactive) | 49.1 µM (inactive) |
| O=C1CCCC/C1=C\c1ccc(Br)cc1 | 24.8 µM (inactive) | 24.8 µM (inactive) | 15.7 µM (inactive) | 20.7 µM (inactive) | 15.7 µM (inactive) | 16.7 µM (inactive) | 16.6 µM (inactive) | 19.9 µM (inactive) | 23.2 µM (inactive) | 17 µM (inactive) | 2.42 µM (inactive) | 22.7 µM (inactive) | 2.99 µM (inactive) | 2.4 µM (inactive) | 3.69 µM (inactive) | 22.4 µM (inactive) | 21.1 µM (inactive) | > 10 µM (inactive) | 19.7 µM (inactive) | 2.75 µM (inactive) |
| CCOC(=O)CSc1nc(N)c2c(-c3ccccc3)c3c(nc2n1)CCCC3 | > 100 µM (inactive) | > 100 µM (inactive) | > 100 µM (inactive) | > 100 µM (inactive) | > 100 µM (inactive) | > 100 µM (inactive) | > 100 µM (inactive) | > 100 µM (inactive) | > 100 µM (inactive) | > 100 µM (inactive) | > 100 µM (inactive) | > 100 µM (inactive) | > 100 µM (inactive) | > 100 µM (inactive) | > 100 µM (inactive) | > 100 µM (inactive) | > 100 µM (inactive) | > 100 µM (inactive) | > 100 µM (inactive) | > 100 µM (inactive) |
| CN1CCCN2CCN(C)CCN(CC1)CC2 | > 100 µM (inactive) | > 100 µM (inactive) | > 100 µM (inactive) | > 100 µM (inactive) | > 100 µM (inactive) | > 100 µM (inactive) | > 100 µM (inactive) | 0.0366 µM (active) | > 100 µM (inactive) | > 100 µM (inactive) | > 100 µM (inactive) | > 100 µM (inactive) | > 100 µM (inactive) | > 100 µM (inactive) | > 100 µM (inactive) | > 100 µM (inactive) | > 100 µM (inactive) | > 100 µM (inactive) | > 100 µM (inactive) | > 100 µM (inactive) |
